Data taken from ChEMBL document CHEMBL6153159, “Eperisone Analogs, Rescuers of MiaB Defects As a Prokaryotic Homologue of CDKAL1, Suppress Blood Glucose Elevation in Rats” (ACS Med Chem Lett, 2025).
Activity calls are given as the source filed them. No cut-off for these calls is given here.

Assays:
[1] = target: T1, Threonylcarbamoyladenosine tRNA methylthiotransferase (Homo sapiens) (UniProt Q5VV42); assay: Rescue of mistranslation activity in CDKAL1 (unknown origin) extracted from Escherichia coli harboring MIaB deficient at 10 uM incubated for 1 hr by dual luciferase assay
T1 sequence (whole entry): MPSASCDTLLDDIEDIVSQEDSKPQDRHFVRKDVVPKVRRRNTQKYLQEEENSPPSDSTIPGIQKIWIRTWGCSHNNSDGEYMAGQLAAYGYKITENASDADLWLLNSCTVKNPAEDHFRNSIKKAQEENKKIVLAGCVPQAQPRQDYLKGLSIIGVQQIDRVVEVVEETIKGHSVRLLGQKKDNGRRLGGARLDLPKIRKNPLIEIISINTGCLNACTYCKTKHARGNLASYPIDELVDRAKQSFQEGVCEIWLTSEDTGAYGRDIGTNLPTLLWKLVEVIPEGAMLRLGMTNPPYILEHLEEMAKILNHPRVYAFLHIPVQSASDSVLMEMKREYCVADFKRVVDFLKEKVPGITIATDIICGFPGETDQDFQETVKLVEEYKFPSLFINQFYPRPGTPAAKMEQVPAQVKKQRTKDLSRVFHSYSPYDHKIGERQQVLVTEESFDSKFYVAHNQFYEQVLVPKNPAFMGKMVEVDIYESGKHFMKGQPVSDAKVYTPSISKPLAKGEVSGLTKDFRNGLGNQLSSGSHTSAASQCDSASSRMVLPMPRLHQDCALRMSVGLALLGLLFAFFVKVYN

MIN6 [2] = assay: Induction of insulin secretion in mouse MIN6 cells at 10 uM incubated for 24 hrs by ELISA method; assay type: functional, cell-based
MIN6 [3] = assay: Cytotoxicity against mouse MIN6 cells at 10 uM by MTT assay relative to control; assay type: toxicity, cell-based; details: min6, 10 µM
[4] = Drug concentration in Wister rat plasma at 100 mg/kg, sc measured after 60 mins; assay type: ADME, organism-based; details: Wistar
[5] = Drug concentration in Wister rat plasma at 100 mg/kg, po measured after 60 mins; assay type: ADME, organism-based; details: Wistar
Rattus norvegicus [6] = assay: Antihyperglycemic activity in male Wister rat assessed as reduction in blood glucose level at 100 mg/kg, sc measured at 30 mins after oral glucose challenge by OGTT analysis; assay type: functional, organism-based
Rattus norvegicus [7] = assay: Antihyperglycemic activity in male Wister rat assessed as reduction in blood glucose level at 100 mg/kg, sc measured at 60 mins after oral glucose challenge by OGTT analysis; assay type: functional, organism-based
Rattus norvegicus [8] = assay: Hypoglycemic effect in male Wister rat assessed as reduction in blood glucose level at 100 mg/kg, sc measured immediately after oral glucose challenge by OGTT analysis; assay type: functional, organism-based; details: time 0.0 min
MIN6 [9] = assay: Induction of insulin secretion in mouse MIN6 cells at 3 uM incubated for 24 hrs by ELISA method; assay type: functional, cell-based

Row | SMILES | Ratio [1] | other results
1 | CCC(CN1CCCCC1)C(=O)c1ccc(C(C)(C)C)cc1 (racemic) | 0.73 | 
2 | CCc1ccc(C(=O)C(C)CN2CCN(CC)CC2)cc1 (racemic) | 0.71 | 
3 | COCCOc1ccc(C(=O)C(C)CN2CCCCC2)cc1.Cl (racemic) | 0.53 | Activity (MIN6 [2]): Active; Activity (MIN6 [3]): 3%; concentration at 1 h [4]: > 15 µM; concentration at 1 h [5]: ≤ 2 µM; Activity (Rattus norvegicus [6]): Active; Activity (Rattus norvegicus [7]): Active; Activity (Rattus norvegicus [8]): inactive
4 | CCCOc1ccc(C(=O)C(C)CN2CCCCC2)cc1 (racemic) | 0.85 | 
5 | CC(C)[C@H]1CC[C@H](C(=O)N[C@H](Cc2ccccc2)C(=O)O)CC1 |  | Activity (Rattus norvegicus [8]): Active
6 | CC(C)(C)c1ccc(C(=O)CCN2CCCCC2)cc1 | 0.8 | 
7 | CCc1ccc(C(=O)C(C)CN2CCCCC2)cc1 (stereo not drawn) | 0.7 | 
8 | CCc1ccc(C(=O)C(C)CN2CCCCC2)s1 (racemic) | 0.63 | 
9 | CCCc1ccc(C(=O)C(C)CN2CCCCC2)cc1 (racemic) | 1.01 | 
10 | Cc1ccc(C(=O)C(C)CN2CCCCC2)cc1 (racemic) | 0.99 | 
11 | CC(CN1CCCCC1)C(=O)c1ccc(C(C)(C)C)cc1.Cl (racemic) | 0.44 | Activity (MIN6 [9]): Active; Activity (MIN6 [3]): 4%; concentration at 1 h [4]: > 15 µM; concentration at 1 h [5]: ≤ 2 µM; Activity (Rattus norvegicus [6]): Active; Activity (Rattus norvegicus [7]): Active; Activity (Rattus norvegicus [8]): inactive
12 | CCOc1ccc(C(=O)C(C)CN2CCCCC2)cc1 (racemic) | 0.84 | 
13 | CC(CN1CCCCC1)C(=O)c1ccc(OCCO)cc1 (racemic) | 0.82 | 
14 | CC(CN1CCCCC1)C(=O)c1ccc(Br)cc1 (racemic) | 0.84 | 
15 | CC(CN1CCCCC1)C(=O)c1ccc(C2CCCCC2)cc1 (racemic) | 1.3 | 
16 | CCc1ccccc1C(=O)C(C)CN1CCCCC1 (racemic) | 0.98 | 
17 | CCc1ccc(C(=O)C(C)CN2CCOCC2)cc1 (racemic) | 1.29 | 
18 | CCc1ccc(C(=O)C(C)CN2CCC(OC)CC2)cc1 (racemic) | 1.13 | 
19 | CC(CN1CCCCC1)C(=O)c1ccc(CC(C)(C)C)cc1 (racemic) | 1.05 | 
20 | CC(CN1CCCCC1)C(=O)c1cccc(C(C)(C)C)c1 (racemic) | 0.95 | 
21 | CCc1ccc(C(=O)C(C)CN2CCCCCC2)cc1 (racemic) | 1.01 | 

Second part, led by results:

Row | Ratio [1] | SMILES | other results
22 | 0.66 | CCc1ccc(C(=O)C(C)(C)CN2CCCCC2)cc1 | 
23 | 0.71 | CC(CN1CCCCC1)C(=O)c1ccc(O)cc1 (racemic) | 
24 | 1.16 | CC(C)(C)c1ccc(C(=O)C(CN2CCCCC2)C(=O)O)cc1 (racemic) | 
25 | 1.04 | CCc1ccc(C(=O)C(C)Cc2ccncc2)cc1 (racemic) | 
26 | 0.96 | CSCCOc1ccc(C(=O)C(C)CN2CCCCC2)cc1 (racemic) | 
27 | 0.98 | CCc1ccc(C(=O)C(C)CN2CCC(C)CC2)cc1 (racemic) | 
28 | 0.88 | CC(C)COc1ccc(C(=O)C(C)CN2CCCCC2)cc1 (racemic) | 
29 | 1.08 | CC(CN1CCCCC1)C(=O)c1ccc(F)cc1 (racemic) | 
30 | 0.99 | CCc1ccc(C(=O)C(C)CN2CCCCC2)o1 (racemic) | 
31 | 1.01 | CCc1ccc(C(=O)C(C)CN2CCC(c3ccccc3)CC2)cc1 (racemic) | 
32 | 0.8 | CCCCOc1ccc(C(=O)C(C)CN2CCCCC2)cc1 (racemic) | 
33 | 0.7 | CCc1ccc(C(=O)C(C)CN2CCN(C)CC2)cc1 (racemic) | 
34 | 0.8 | CCc1ccc(C(=O)CCN2CCCCC2)cc1 | 
35 | 0.78 | CC(CN1CCCCC1)C(=O)c1ccc(C(C)C)cc1 (racemic) | 
36 | 0.97 | CCc1ccc(C(=O)C(C)CN2CCSCC2)cc1 (racemic) | 
37 | 0.75 | CCc1ccc(C(=O)C(C)CC2CCNCC2)cc1 (racemic) | 
38 | 1.01 | CCc1ccc(C(=O)C(C)CN2CCCC2)cc1 (racemic) | 
39 | 0.95 | CCc1ccc(C(=O)C(C)CNC2CCCCC2)cc1 (racemic) | 
40 | 0.93 | CC(C)Oc1ccc(C(=O)C(C)CN2CCCCC2)cc1 (racemic) | 
41 | 0.87 | CC(CN1CCCCC1)C(=O)c1ccc(C(F)(F)F)cc1 (racemic) | 
42 | 0.85 | CCC(C)(C)c1ccc(C(=O)C(C)CN2CCCCC2)cc1 (racemic) | 
43 | 0.95 | CCc1cccc(C(=O)C(C)CN2CCCCC2)c1 (racemic) | 
44 | 0.86 | CC(CN1CCCCC1)C(=O)c1ccc(Cl)cc1 (racemic) | 
